# Assay results from patent US20200199528A1, “CELL CULTURE MEDIA FOR DIFFERENTIATION OF STEM CELLS INTO HEPATOCYTES” (KATHOLIEKE UNIVERSITEIT LEUVEN, priority 2017, published 2020).
# What was measured:
# [1] = test system: HC6X cells
# Description: We cultured HC6X cells (both in an H9 background and in an) BJ1-iPSc background in 384 well format in AAGLY-supplemented medium.
# PSC, HC3X and HC6X cells were differentiated in a 384 well format. Cells were treated with 14 different concentrations of compounds in 6 repeats. As a negative control 41 wells were left untreated. After 24 h of exposure media was aspirated and fresh media was added to the cells supplemented with 0.3 mM of DRAQ 7 (Abcam; ab109202) and Hoechst dye (1/1000, Sigma, 33258) for 25 min at 37°. Cells were fixed with 4% paraformaldehyde. Imaging was done using an Operetta High-Content Imaging System (Perkin Elmer) and image analysis was performed using Harmony software (Perkin Elmer). Relative cell number was calculated as the percentage of living cells (draq7 positive amount subtracted from the Hoechst positive amount) relative to the average of living cells in the control wells. As a positive control, 2 donors of PHHs were seeded at 10 000 cells per well. Drugs were administrated after 8 hours of attachment. HepG2 cells were seeded at 40 000 cells per well. For control conditions HepG2 cells were exposed after 2 days of culture. For AAGLY conditions HepG2 cells were maintained in the supplemented medium for 30 days before exposure.
# [2] = test system: HepG2 cells
# Description: PSC, HC3X and HC6X cells were differentiated in a 384 well format. Cells were treated with 14 different concentrations of compounds in 6 repeats. As a negative control 41 wells were left untreated. After 24 h of exposure media was aspirated and fresh media was added to the cells supplemented with […] of DRAQ 7 (Abcam; ab109202) and Hoechst dye (1/1000, Sigma, 33258) for 25 min at 37°. Cells were fixed with 4% paraformaldehyde. Imaging was done using an Operetta High-Content Imaging System (Perkin Elmer) and image analysis was performed using Harmony software (Perkin Elmer). Relative cell number was calculated as the percentage of living cells (draq7 positive amount subtracted from the Hoechst positive amount) relative to the average of living cells in the control wells. As a positive control, 2 donors of PHHs were seeded at 10 000 cells per well. Drugs were administrated after 8 hours of attachment. HepG2 cells were seeded at 40 000 cells per well. For control conditions HepG2 cells were exposed after 2 days of culture.
smiles,measurement,setting,value
"CC(=O)Nc1ccc(O)cc1 [APAP, acetaminophen]",Toxicity,[1],no toxicity
same,Toxicity,[2],not able to pick up toxicity
